From patent EP0171942A1, “Antitumor composition” (Takeda Chemical Industries, Ltd., priority 1984, dated 1986)

What was measured:
[1] = system: Lewis lung carcinoma; assay: Antitumor effect test using Lewis lung carcinoma (subcutaneous tumor fragment implant, tumor weight on day 10); type: in vivo, mouse; settings: oral, once daily for 7 days
Experimental: The antitumor composition according to the invention was tested for antitumor effect using Lewis lung carcinoma. Thus, each female Fl mouse [C57BL/6 x DBA/2] weighing 18 ± 1 .g was implanted with a tumor fragment about 2 mm^3 in volume subcutaneously into the axillary site using a trocar. Starting from 24 hours after tumor implantation, the above- mentioned compound 4 and uracil were orally administered combinedly in the proportion given below in Table 1 once daily for 7 days, and the antitumor effect was compared with that attained when each of them was administered singly. The sample agent was suspended in a 0.5% solution of gum arabic in physiological saline just before daily administration such that the dose amounted to 0.2 ml/20 g body weight. Ten days after tumor implantation, the tumor was excised and weighed, and the average tumor weight ratio (T/C %) between the dosed group (T, group of 5 animals) and the control group (C, group of 10 animals) was calculated. The daily dose was expressed in terms of number of moles per kilogram of body weight (mM/kg).

[2] = system: colon carcinoma 26; assay: Antitumor effect test using colon carcinoma 26 (subcutaneous tumor fragment implant, tumor weight on day 10); type: in vivo, mouse; settings: oral, once a day for 7 days
Experimental: The antitumor composition according to the invention was further tested for antitumor effect using colon carcinoma 26. Thus, each female F1 mouse [BALB/c x DBA/2] weighing 21 ± 1 g was subcutaneously implanted with a tumor fragment (about 2 mm3) into the axillary site using a trocar. Starting from 24 hours after tumor implantation, the above- mentioned compound 4 and uracil were orally administered combinedly on the proportion given below in Table 2 once a day for 7 days, and the antitumor effect was compared with that attained by single administration of either of them. The test agent was suspended in a 0.5% solution of gum arabic in physiological saline daily just before administration such that the dose amounted to 0.2 ml/20 g body weight. Ten days after tumor implantation, the tumor was excised and weighed, and the average tumor weight ratio (T/C %) between the dosed group (T, group of 5 animals) and the control group (C, group of 20 animals) was calculated. The daily dose was expressed in terms of number of moles per kilogram of body weight (mM/kg).

[3] = compound 4 0.1 mM/kg alone, tumor excised 10 days after implantation
[4] = compound 4 0.2 mM/kg alone, day 10
[5] = compound 4 0.4 mM/kg alone, day 10
[6] = compound 4 0.8 mM/kg alone, day 10

Structure (SMILES): CC(C)COC(=O)C1(F)C(=O)NC(=O)NC1O/N=C/c1ccco1 (centres unmarked) [compound 4, Isobutyl 5-fluoro-4-[(E)-furfurylideneaminooxy]-2,6-dioxohexahydropyrimidine-5-carboxylate]
- T/C [1, 3]: 54%
- Tumor weight [1, 3]: 138 mg
- T/C [1, 4]: 42%
- Tumor weight [1, 4]: 107 mg
- T/C [1, 5]: 31%
- Tumor weight [1, 5]: 80 mg
- T/C [1, 6]: 19%
- Tumor weight [1, 6]: 49 mg
- T/C [2, 3]: 96%
- Tumor weight [2, 3]: 190 mg
- T/C [2, 4]: 29%
- Tumor weight [2, 4]: 57 mg
- T/C [2, 5]: 1%
- Tumor weight [2, 5]: 2 mg
- T/C [2, 6]: 0%
- Tumor weight [2, 6]: 0 mg

Structure (SMILES): O=c1cc[nH]c(=O)[nH]1 [uracil]
- T/C ([1]; uracil 0.4 mM/kg alone, day 10): 125%
- Tumor weight ([1]; uracil 0.4 mM/kg alone, day 10): 319 mg
- T/C ([1]; uracil 0.8 mM/kg alone, day 10): 224%
- Tumor weight ([1]; uracil 0.8 mM/kg alone, day 10): 572 mg
- T/C ([1]; uracil 1.6 mM/kg alone, day 10): 197%
- Tumor weight ([1]; uracil 1.6 mM/kg alone, day 10): 502 mg
- T/C ([1]; uracil 3.2 mM/kg alone, day 10): 169%
- Tumor weight ([1]; uracil 3.2 mM/kg alone, day 10): 432 mg
- T/C ([2]; uracil 0.4 mM/kg alone, day 10): 113%
- Tumor weight ([2]; uracil 0.4 mM/kg alone, day 10): 223 mg
- T/C ([2]; uracil 0.8 mM/kg alone, day 10): 87%
- Tumor weight ([2]; uracil 0.8 mM/kg alone, day 10): 173 mg
- T/C ([2]; uracil 1.6 mM/kg alone, day 10): 86%
- Tumor weight ([2]; uracil 1.6 mM/kg alone, day 10): 170 mg
- T/C ([2]; uracil 3.2 mM/kg alone, day 10): 98%
- Tumor weight ([2]; uracil 3.2 mM/kg alone, day 10): 194 mg
